# ChEMBL document CHEMBL3774310, “Discovery of antitumor anthra[2,3-b]furan-3-carboxamides: Optimization of synthesis and evaluation of antitumor properties” (Eur J Med Chem, 2016)
# Assays:
# L1210 = test: cells; details: Mus musculus, L1210, 48 h
# Description: Antiproliferative activity against mouse L1210 cells after 48 hrs by MTT assay
# [1] = biological target: Serine/threonine-protein kinase tousled-like 1 (Homo sapiens, UniProt Q9UKI8); test: Inhibition of human N-terminal FLAG, C-terminal HIS8-tagged TLK1 expressed in sf9 cells by flashplate based radiometric 33pan-quinase assay
# Chain of Serine/threonine-protein kinase tousled-like 1 (Q9UKI8 whole entry): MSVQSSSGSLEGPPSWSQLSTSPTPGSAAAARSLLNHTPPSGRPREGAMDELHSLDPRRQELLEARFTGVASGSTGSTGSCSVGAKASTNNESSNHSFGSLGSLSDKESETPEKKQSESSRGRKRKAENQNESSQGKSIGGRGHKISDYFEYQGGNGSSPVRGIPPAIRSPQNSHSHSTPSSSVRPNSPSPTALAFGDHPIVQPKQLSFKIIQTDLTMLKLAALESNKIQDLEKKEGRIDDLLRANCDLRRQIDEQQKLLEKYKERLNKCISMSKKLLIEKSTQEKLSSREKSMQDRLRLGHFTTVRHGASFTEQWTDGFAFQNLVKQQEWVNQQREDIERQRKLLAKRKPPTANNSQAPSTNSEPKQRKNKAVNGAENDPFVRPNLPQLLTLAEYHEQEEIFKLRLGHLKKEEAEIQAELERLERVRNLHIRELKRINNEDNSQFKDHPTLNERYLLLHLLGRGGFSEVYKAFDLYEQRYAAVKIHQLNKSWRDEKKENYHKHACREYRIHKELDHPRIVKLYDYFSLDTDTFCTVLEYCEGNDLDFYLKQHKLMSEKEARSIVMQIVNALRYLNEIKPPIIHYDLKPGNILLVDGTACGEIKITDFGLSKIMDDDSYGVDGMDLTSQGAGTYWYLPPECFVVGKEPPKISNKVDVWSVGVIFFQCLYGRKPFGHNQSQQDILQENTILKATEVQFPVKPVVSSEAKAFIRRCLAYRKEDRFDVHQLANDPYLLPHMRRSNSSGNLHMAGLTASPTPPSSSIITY
SMILES,IC50 (L1210),IC50 [1]
CS(=O)(=O)O.Cc1oc2c(O)c3c(c(O)c2c1C(=O)N1CC[C@@H](N)C1)C(=O)c1ccccc1C3=O,1900 nM,–
CS(=O)(=O)O.Cc1oc2c(O)c3c(c(O)c2c1C(=O)N1CC[C@H](N)C1)C(=O)c1ccccc1C3=O,–,< 5000 nM
